Test results taken from patent publication US9617283B2, “Bicyclic heterocycle compounds and their uses in therapy” (ASTEX THERAPEUTICS LIMITED, priority 2012, dated 2017).
pEC50: −log10 of the molar value. Structures can show the parent of a compound that is named as a salt. Where two headings read alike, the source gives them in different places.

Tested on: EVSA-T (human breast carcinoma)
Test: Anti-proliferative activity, Alamar Blue assay, EVSA-T
Format: cell-based
[1] = Homo sapiens, EVSA-T, 72 h, EVSA-T cell line, 72 hours, Alamar Blue, read-out: EVSA-T prolif
[2] = Homo sapiens, EVSA-T, read-out: EC50 in EVSA-T cell line assays
[3] = EVSA-T cell line, 72 hours, Alamar Blue, dihydrochloride, read-out: EVSA-T prolif
[4] = Homo sapiens, EVSA-T cell line, 72 hours, Alamar Blue, read-out: EVSA-T prolif

Method: Anti-Proliferative Activity
The method is based on the ability of viable cells to reduce resazurin to its fluorescent product resorufin. For each proliferation assay cells are plated onto 96 well plates and allowed to recover for 16 hours prior to the addition of inhibitor compounds (in 0.1% DMSO v/v) for a further 72 hours. […] The anti-proliferative activities of compounds of the invention can be determined by measuring the ability of the compounds to inhibit growth in 3 cancer cell lines: • EVSA-T (human breast carcinoma) DSMZ cat. no.

| SMILES | pEC50 [1] | pEC50 [2] | pEC50 [3] | pEC50 [4] |
| --- | --- | --- | --- | --- |
| C[C@@H]1CN(CC(=O)N2CC(C)(C)c3ncc(Cc4ccc(F)cc4)cc32)[C@@H](CN2CCOCCC2=O)CN1 [Example 2, 4-{[(2R,5R)-1-(2-{6-[(4-Fluorophenyl)methyl]-3,3-dimethyl-1H,2H,3H-pyrrolo[3,2-b]pyridin-1-yl}-2-oxoethyl)-5-methylpiperazin-2-yl]methyl}-1,4-oxazepan-5-one hydrochloride] | 8.19 | > 6.00 |  |  |
| C[C@@H]1CN(CC(=O)N2CC(C)(C)c3ncc(Cc4ccc(F)cc4)cc32)[C@@H](CN2C(=O)[C@@H]3CC[C@H]2C3)CN1 [Example 8, (1S,4R)-2-{[(2R,5R)-1-(2-{6-[(4-Fluorophenyl)methyl]-3,3-dimethyl-1H,2H,3H-pyrrolo[3,2-b]pyridin-1-yl}-2-oxoethyl)-5-methylpiperazin-2-yl]methyl}-2-azabicyclo[2.2.1]heptan-3-one dihydrochloride] | 8.15 | > 6.00 |  |  |
| C[C@@H]1CN(CC(=O)N2CC(C)(C)c3ncc(Cc4ccc(F)cc4)cc32)[C@@H](CN2C[C@@H](C)OC2=O)CN1 [Example 9, (5R)-3-{[(2R,5R)-1-(2-{6-[(4-Fluorophenyl)methyl]-3,3-dimethyl-1H,2H,3H-pyrrolo[3,2-b]pyridin-1-yl}-2-oxoethyl)-5-methylpiperazin-2-yl]methyl}-5-methyl-1,3-oxazolidin-2-one] | 8.23 | > 6.00 |  |  |
| C[C@@H]1CN(CC(=O)N2CC(C)(C)c3ncc(Cc4ccc(F)cc4)cc32)[C@@H](CN2CCC(F)(F)C2=O)CN1 [Example 11, 3,3-Difluoro-1-{[(2R,5R)-1-(2-{6-[(4-fluorophenyl)methyl]-3,3-dimethyl-1H,2H,3H-pyrrolo[3,2-b]pyridin-1-yl}-2-oxoethyl)-5-methylpiperazin-2-yl]methyl}pyrrolidin-2-one dihydrochloride] |  |  |  | 8.37 |
| C[C@@H]1CN(CC(=O)N2CC(C)(C)c3ncc(Cc4ccc(F)cc4)cc32)[C@@H](CN2Cc3ncccc3C2=O)CN1 [Example 15, 6-{[(2R,5R)-1-(2-{6-[(4-Fluorophenyl)methyl]-3,3-dimethyl-1H,2H,3H-pyrrolo[3,2-b]pyridin-1-yl}-2-oxoethyl)-5-methylpiperazin-2-yl]methyl}-5H,6H,7H-pyrrolo[3,4-b]pyridin-5-onne dihydrochloride] |  |  |  | 9.20 |
| C[C@@H]1CC(=O)N(C[C@H]2CN[C@H](C)CN2CC(=O)N2CC(C)(C)c3ncc(Cc4ccc(F)cc4)cc32)C1 [Example 16, (4R)-1-{[(2R,5R)-1-(2-{6-[(4-Fluorophenyl)methyl]-3,3-dimethyl-1H,2H,3H-pyrrolo[3,2-b]pyridin-1-yl}-2-oxoethyl)-5-methylpiperazin-2-yl]methyl}-4-methylpyrrolidin-2-one dihydrochloride] | 8.22 |  |  |  |

Now from value to compound, other results behind:

| pEC50 [1] | pEC50 [2] | pEC50 [3] | SMILES | pEC50 [4] |
| --- | --- | --- | --- | --- |
| 8.82 | > 6.00 |  | CCC1CC(=O)N(C[C@H]2CN[C@H](C)CN2CC(=O)N2CC(C)(C)c3ncc(Cc4ccc(F)cc4)cc32)C1 (single isomer, unassigned) [Example 82, (4R or 4S)-4-Ethyl-1-{[(2R,5R)-1-(2-{6-[(4-fluorophenyl)methyl]-3,3-dimethyl-1H,2H,3H-pyrrolo[3,2-b]pyridin-1-yl}-2-oxoethyl)-5-methylpiperazin-2-yl]methyl}pyrrolidin-2-one dihydrochloride] |  |
| 8.96 | > 6.00 |  | CCC1CC(=O)N(C[C@H]2CN[C@H](C)CN2CC(=O)N2CC(C)(C)c3cnc(Cc4ccc(F)cc4F)cc32)C1 (single isomer, unassigned) [Example 83, (4R or 4S)-1-{[(2R,5R)-1-(2-{6-[(2,4-Difluorophenyl)methyl]-3,3-dimethyl-1H,2H,3H-pyrrolo[3,2-c]pyridin-1-yl}-2-oxoethyl)-5-methylpiperazin-2-yl]methyl}-4-ethylpyrrolidin-2-one dihydrochloride] |  |
|  |  | 8.77 | CCC1CC(=O)N(C[C@H]2CN[C@H](C)CN2CC(=O)N2CC(C)(C)c3ncc(Cc4ccc(F)cc4)cc32)C1 (single isomer, unassigned) [Example 86, (4R or 4S)-4-Ethyl-1-{[(2R,5R)-1-(2-{6-[(4-fluorophenyl)methyl]-3,3-dimethyl-1H,2H,3H-pyrrolo[3,2-b]pyridin-1-yl}-2-oxoethyl)-5-methylpiperazin-2-yl]methyl}pyrrolidin-2-one dihydrochloride] |  |
|  |  | 8.92 | CCC1CC(=O)N(C[C@H]2CN[C@H](C)CN2CC(=O)N2CC(C)(C)c3cnc(Cc4ccc(F)cc4F)cc32)C1 (single isomer, unassigned) [Example 87, (4R or 4S)-1-{[(2R,5R)-1-(2-{6-[(2,4-Difluorophenyl)methyl]-3,3-dimethyl-1H,2H,3H-pyrrolo[3,2-c]pyridin-1-yl}-2-oxoethyl)-5-methylpiperazin-2-yl]methyl}-4-ethylpyrrolidin-2-one dihydrochloride] |  |
|  | > 6.00 | 7.85 | CCCC(F)(F)c1cc2c(cn1)C(C)(C)CN2C(=O)CN1C[C@@H](C)NC[C@@H]1CN1CC(CC)OCC1=O (single isomer, unassigned) [Example 88, 4-{[(2R,5R)-1-{2-[6-(1,1-Difluorobutyl)-3,3-dimethyl-1H,2H,3H-pyrrolo[3,2-c]pyridin-1-yl]-2-oxoethyl}-5-methylpiperazin-2-yl]methyl}-(R or S)-6-ethylmorpholin-3-one dihydrochloride] |  |
|  |  | 8.19 | CCCC(F)(F)c1cc2c(cn1)C(C)(C)CN2C(=O)CN1C[C@@H](C)NC[C@@H]1CN1CC(CC)OCC1=O (single isomer, unassigned) [Example 89, 4-{[(2R,5R)-1-{2-[6-(1,1-Difluorobutyl)-3,3-dimethyl-1H,2H,3H-pyrrolo[3,2-c]pyridin-1-yl]-2-oxoethyl}-5-methylpiperazin-2-yl]methyl}-(R or S)-6-ethylmorpholin-3-one dihydrochloride] |  |
| 8.51 | > 6.00 |  | C[C@H]1CC(=O)N(C[C@H]2CN[C@H](C)CN2CC(=O)N2CC(C)(C)c3ncc(Cc4ccc(F)cc4)cc32)C1 [Example 17, (4S)-1-{[(2R,5R)-1-(2-{6-[(4-Fluorophenyl)methyl]-3,3-dimethyl-1H,2H,3H-pyrrolo[3,2-b]pyridin-1-yl}-2-oxoethyl)-5-methylpiperazin-2-yl]methyl}-4-methylpyrrolidin-2-one dihydrochloride] |  |
| 8.04 | > 6.00 |  | C[C@@H]1CN(CC(=O)N2CC(C)(C)c3ncc(Cc4ccc(F)cc4)cc32)[C@@H](CN2CC(=O)NCC2=O)CN1 [Example 22, 1-{[(2R,5R)-1-(2-{6-[(4-Fluorophenyl)methyl]-3,3-dimethyl-1H,2H,3H-pyrrolo[3,2-b]pyridin-1-yl}-2-oxoethyl)-5-methylpiperazin-2-yl]methyl}piperazine-2,5-dione] |  |
| 8.72 | > 6.00 |  | C[C@@H]1CN(CC(=O)N2CC(C)(C)c3ncc(Cc4ccc(F)cc4)cc32)[C@@H](CN2C(=O)CO[C@@H](C)[C@H]2C)CN1 [Example 25, (5R,6S)-4-{[(2R,5R)-1-(2-{6-[(4-Fluorophenyl)methyl]-3,3-dimethyl-1H,2H,3H-pyrrolo[3,2-b]pyridin-1-yl}-2-oxoethyl)-5-methylpiperazin-2-yl]methyl}-5,6-dimethylmorpholin-3-one, dihydrochloride] |  |
